We go through 37 compounds from patent US8853392B2, “Benzamide mGluR5 positive allosteric modulators and methods of making and using same” (Vanderbilt University, priority 2007, dated 2014).

The subject of experiment [1] is amphetamine-induced hyperlocomotion. The experiment in a line: reversal of amphetamine-induced hyperlocomotion. It counts as in vivo, male Sprague-Dawley rats. Conditions: rats, i.p., FIG. 8-10, 13, 14. How it is done: For example, compounds of the present invention reverse amphetamine-induced hyperlocomotion in male Sprague-Dawley rats at doses ranging from 1 to 100 mg/kg i.p. Data for three example compounds follow:
Locomotor activity can be assessed as mean distance traveled (cm) in standard 16×16 photocell testing chambers measuring 43.2 cm (L)×43.2 cm (W)×30.5 cm (H) (Med Associates, St. Albans, Vt.). Animals can be habituated to individual activity chambers for at least 60 min prior to drug administration. Following administration of appropriate drugs or vehicle, activity can be recorded for a 3 hr time period. Data can be expressed as the mean (±SEM) distance traveled recorded in 10 min intervals over the test period. The data can be analyzed using repeated measures analysis of variance (ANOVA) followed by post-hoc testing using Tukey's HSD test, when appropriate. A difference can be considered significant when p≦0.05.

The target of another experiment is T1, rat mGluR5 (Rattus norvegicus, UniProt P31424).
T1 construct: expressed in transfected cells; host or cells: human embryonic kidney (HEK) cells
T1 sequence (P31424 21-1203): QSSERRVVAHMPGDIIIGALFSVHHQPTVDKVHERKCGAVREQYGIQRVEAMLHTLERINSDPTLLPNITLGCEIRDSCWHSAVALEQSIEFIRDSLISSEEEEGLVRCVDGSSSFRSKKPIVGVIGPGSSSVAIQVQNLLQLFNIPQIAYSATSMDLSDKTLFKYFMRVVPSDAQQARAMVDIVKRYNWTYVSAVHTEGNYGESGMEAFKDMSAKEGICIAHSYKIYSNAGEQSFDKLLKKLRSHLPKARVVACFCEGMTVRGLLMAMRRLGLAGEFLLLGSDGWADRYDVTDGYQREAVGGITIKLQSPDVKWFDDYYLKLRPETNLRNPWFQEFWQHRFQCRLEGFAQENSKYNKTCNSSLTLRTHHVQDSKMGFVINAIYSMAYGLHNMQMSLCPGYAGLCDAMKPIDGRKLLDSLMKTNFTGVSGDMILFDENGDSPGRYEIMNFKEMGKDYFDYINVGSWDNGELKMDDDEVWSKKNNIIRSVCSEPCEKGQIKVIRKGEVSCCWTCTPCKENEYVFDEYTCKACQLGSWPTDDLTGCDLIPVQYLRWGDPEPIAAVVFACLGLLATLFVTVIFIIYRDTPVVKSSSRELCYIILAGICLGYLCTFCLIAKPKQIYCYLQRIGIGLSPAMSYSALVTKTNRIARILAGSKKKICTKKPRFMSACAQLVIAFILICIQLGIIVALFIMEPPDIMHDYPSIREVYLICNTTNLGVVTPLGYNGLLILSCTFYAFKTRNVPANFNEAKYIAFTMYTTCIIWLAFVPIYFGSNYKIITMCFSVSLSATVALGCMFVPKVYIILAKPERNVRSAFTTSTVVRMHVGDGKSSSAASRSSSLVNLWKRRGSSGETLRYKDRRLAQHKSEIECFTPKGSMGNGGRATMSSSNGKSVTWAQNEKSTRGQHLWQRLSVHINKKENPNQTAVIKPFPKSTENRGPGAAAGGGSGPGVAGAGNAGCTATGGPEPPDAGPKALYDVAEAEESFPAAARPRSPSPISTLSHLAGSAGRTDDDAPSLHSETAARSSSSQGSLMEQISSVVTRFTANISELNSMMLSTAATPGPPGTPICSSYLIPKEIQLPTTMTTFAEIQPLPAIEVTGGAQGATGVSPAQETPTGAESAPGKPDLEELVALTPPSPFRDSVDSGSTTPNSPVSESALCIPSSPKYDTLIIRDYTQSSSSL
The experiment is described as follows: potentiation of mGluR5 response to glutamate, Ca2+ fluorescence (FDSS) in HEK cells transfected with rat mGluR5. It counts as cell-based. Summed up:
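HEK cells expressing rat mGluR5, loaded with 2 μM fluo-4 AM; buffer HBSS, 20 mM HEPES, 2.5 mM probenecid, pH 7.4, 0.1% DMSO final. Compound added 5 min before glutamate, typically at EC20, with Ca2+ fluorescence read over 1 min and normalized to maximal agonist response. Potentiator EC50 from curve fitting; agonist curve shifts measured at fixed compound concentrations.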

The mark [2] stands for this setting: HEK293, read-out: % Glu Max, maximum extent of potentiation, normalized to maximal response to glutamate; SAR tables.
[3] abbreviates: Table 1, EC50 for potentiating the mGluR5 receptor; unit inferred; read-out: EC50.
Where [4] appears, read: in vitro potency; read-out: In vitro.
Where [5] appears, read: potentiation of glutamate response, HEK cells transfected with rat mGluR5; SAR tables; read-out: EC50.
Where [6] appears, read: HEK293; maximum extent of potentiation, normalized to maximal response to glutamate; SAR tables; read-out: % Glu Max.

The structures appear in SMILES notation. “Also recorded” adds a separate entry of the source. Where two headings read alike, the source gives them in different places.

Regarding `CCCC1(O)CCN(C(=O)c2ccc(C#Cc3ccccc3)cc2)CC1` [Compound VU60/C109B2, (4-hydroxy-4-propylpiperidin-1-yl)(4-(phenylethynyl)phenyl)methanone], the “reversal of amphetamine-induced hyperlocomotion” value in experiment [1] was “efficacy in reversing amphetamine-induced hyperlocomotion”; in experiment [1] (listed as VU60) it was “in vivo efficacy”. The Emax at rat mGluR5 (HEK293, read-out: % Glu Max) turned out to be 90%; on rat mGluR5 (setting [2]), 90.1%. Moreover, the EC50 at rat mGluR5 (setting [3]) is 1610 nM; on rat mGluR5 (setting [4]), 1250 nM.

For `O=C(c1ccc(C#Cc2ccccc2)cc1)N1CCC(O)CC1` [Compound VU13, (4-hydroxypiperidin-1-yl)(4-(phenylethynyl)phenyl)methanone], the “reversal of amphetamine-induced hyperlocomotion” value in experiment [1] is reported as “efficacy in reversing amphetamine-induced hyperlocomotion; also recorded: in vivo efficacy”. Besides, the Emax on rat mGluR5 (HEK293; read-out: % Glu Max) is 50%. The EC50 is 14.3 nM at rat mGluR5 (setting [3]) and 13.6 nM at rat mGluR5 (setting [4]). In the case of `CN1CCCC1CCNC(=O)c1ccc(C#Cc2ccccc2)cc1` (stereo not drawn) [N-(2-(1-methylpyrrolidin-2-yl)ethyl)-4-(phenylethynyl)benzamide], the EC50 at rat mGluR5 (setting [3]) was found to be 3530 nM. The same measure, in the same setting: the same measure for `CC(C)(C)CCNC(=O)c1ccc(C#Cc2ccccc2)cc1` [N-(3,3-dimethylbutyl)-4-(phenylethynyl)benzamide]: 19.4 nM; for `O=C(NC1CCc2ccccc21)c1ccc(C#Cc2ccccc2)cc1` (stereo not drawn) [N-(2,3-dihydro-1H-inden-1-yl)-4-(phenylethynyl)benzamide]: 146 nM; for `CN1CCN(C(=O)c2ccc(C#Cc3ccccc3)cc2)CC1` [(4-methylpiperazin-1-yl)(4-(phenylethynyl)phenyl)methanone]: 166 nM. Still for that read-out and setting: the figure for `O=C(c1ccc(C#Cc2ccccc2)cc1)N1CCC(O)(c2ccccc2)CC1` [(4-hydroxy-4-phenylpiperidin-1-yl)(4-(phenylethynyl)phenyl)methanone] is 3660 nM.

Turning to `O=C(c1ccc(C#Cc2ccccc2)cc1)N1CCC(O)(c2ccc(F)cc2)CC1` [Compound 7e], the Emax at rat mGluR5 (setting [2]) turned out to be 87%. For the same compound, the EC50 at rat mGluR5 (setting [5]) stood at 1190 nM.

For the compound `O=C(c1ccc(C#Cc2ccccc2)cc1)N1CCN(c2ccncc2)CC1` [(4-(phenylethynyl)phenyl)(4-(pyridin-4-yl)piperazin-1-yl)methanone], the EC50 on rat mGluR5 (setting [3]) turned out to be 3680 nM. Regarding `O=C(c1ccc(C#Cc2ccccc2)cc1)N1CC(O)(c2cccs2)C1` [Compound 9d, (3-hydroxy-3-(thiophen-2-yl)azetidin-1-yl)(4-(phenylethynyl)phenyl)methanone], the Emax on rat mGluR5 (setting [6]) stood at 43.7%. In addition, the EC50 was 1710 nM on rat mGluR5 (setting [3]) and 1470 nM at rat mGluR5 (setting [5]). On to `O=C(c1ccc(C#Cc2ccccc2)cc1)N1CCNCC1` [(4-(phenylethynyl)phenyl)(piperazin-1-yl)methanone], for which the EC50 on rat mGluR5 (setting [3]) turned out to be 4790 nM. In the case of `O=C(c1ccc(C#Cc2cc(F)cc(F)c2)cc1)N1CCC(O)CC1` [Compound 19e, (4-((3,5-difluorophenyl)ethynyl)phenyl)(4-hydroxypiperidin-1-yl)methanone], the Emax at rat mGluR5 (setting [6]) was determined as 67%. The EC50 was 1000 nM at rat mGluR5 (setting [3]) and 593 nM on rat mGluR5 (setting [5]). Turning to `O=C(c1ccc(C#Cc2ccc(F)cc2)cc1)N1CCC(CO)CC1` [Compound 20g, (4-((4-fluorophenyl)ethynyl)phenyl)(4-(hydroxymethyl)piperidin-1-yl)methanone], at rat mGluR5 (setting [6]), the Emax was found to be 95%. Further, the results for the EC50 at rat mGluR5 (setting [3]) and on rat mGluR5 (setting [5]) were 26.1 nM and 24.7 nM, respectively. Turning to `O=C(c1ccc(-c2nc(-c3ccc(F)cc3)no2)cc1)N1CCN(c2ccncc2)CC1` [(4-(3-(4-fluorophenyl)-1,2,4-oxadiazol-5-yl)phenyl)(4-(pyridin-4-yl)piperazin-1-yl)methanone], at rat mGluR5 (setting [3]), the EC50 is 4210 nM. The same measure, in the same setting: the figure for `O=C(c1ccc(C#Cc2ccccc2)cc1)N1CCC(n2c(=O)[nH]c3ccccc32)CC1` [1-(1-(4-(phenylethynyl)benzoyl)piperidin-4-yl)-1H-benzo[d]imidazol-2(3H)-one] is 1470 nM; for `O=C(NCCN1CCOCC1)c1ccc(C#Cc2ccccc2)cc1` [N-(2-morpholinoethyl)-4-(phenylethynyl)benzamide] it is 137 nM.

As to `O=C(c1ccc(C#Cc2ccc(F)cc2)cc1)N1CCOCC1` [Compound 20k, (4-((4-fluorophenyl)ethynyl)phenyl)(morpholino)methanone], on rat mGluR5 (setting [6]), the Emax is 107%. Moreover, the EC50 at rat mGluR5 (setting [3]) is 24.7 nM; on rat mGluR5 (setting [5]), 23.6 nM. As for `C[C@H](NC1CCN(C(=O)c2ccc(C#Cc3ccccc3)cc2)CC1)C1CCCCC1` [(S)-(4-(1-cyclohexylethylamino)piperidin-1-yl)(4-(phenylethynyl)phenyl)methanone], the EC50 at rat mGluR5 (setting [3]) is 129 nM. Consider `CC1CCCCN1C(=O)c1ccc(C(=O)Nc2ccc(F)cc2)cc1` (stereo not drawn) [N-(4-fluorophenyl)-4-(2-methylpiperidine-1-carbonyl)benzamide], for which the EC50 at rat mGluR5 (setting [3]) was determined as 3330 nM.

Take `CC(=O)C1(c2ccccc2)CCN(C(=O)c2ccc(C#Cc3ccccc3)cc2)CC1` [1-(4-phenyl-1-(4-(phenylethynyl)benzoyl)piperidin-4-yl)ethanone]: the EC50 on rat mGluR5 (EC50, Table 1, EC50 for potentiating the mGluR5 receptor; unit inferred) was determined as 1250 nM. With `CCCNC(=O)c1ccc(-c2nc(-c3ccc(F)cc3)no2)cc1` [4-(3-(4-fluorophenyl)-1,2,4-oxadiazol-5-yl)-N-propylbenzamide], the EC50 on rat mGluR5 (setting [3]) came to 2030 nM. As for `O=C(NCCCN1CCOCC1)c1ccc(C#Cc2ccccc2)cc1` [N-(3-morpholinopropyl)-4-(phenylethynyl)benzamide], the EC50 on rat mGluR5 (setting [3]) is 1230 nM.

Consider `O=C(c1ccc(C#Cc2ccccc2)cc1)N1CCN(c2ccccc2)CC1` [(4-(phenylethynyl)phenyl)(4-phenylpiperazin-1-yl)methanone], for which, on rat mGluR5 (setting [3]), the EC50 was determined as 2060 nM. Still for that read-out and setting: the figure for `O=C(c1ccc(C#Cc2ccccc2)cc1)n1c(=O)n(C2CCNCC2)c2cc(Cl)ccc21` [5-chloro-1-(4-(phenylethynyl)benzoyl)-3-(piperidin-4-yl)-1H-benzo[d]imidazol-2(3H)-one] is 3720 nM; for `O=C(c1ccc(C#Cc2ccccc2)cc1)N1CCC2CCCCC2C1` (stereo not drawn) [(octahydroisoquinolin-2(1H)-yl)(4-(phenylethynyl)phenyl)methanone] it is 593 nM; for `CCN1CCC[C@H]1CNC(=O)c1ccc(C#Cc2ccccc2)cc1` [(S)-N-((1-ethylpyrrolidin-2-yl)methyl)-4-(phenylethynyl)benzamide] it is 1030 nM. Still for that read-out and setting: the same measure for `O=C(NCCN1CCCCC1)c1ccc(C#Cc2ccccc2)cc1` [4-(phenylethynyl)-N-(2-(piperidin-1-yl)ethyl)benzamide]: 1790 nM; for `CCCNC(=O)c1ccc(-c2nc(-c3ccccc3)no2)cc1` [4-(3-phenyl-1,2,4-oxadiazol-5-yl)-N-propylbenzamide]: 2270 nM; for `O=C(NC1CCCC1)c1ccc(C#Cc2ccccc2)cc1` [N-cyclopentyl-4-(phenylethynyl)benzamide]: 2.78 nM. Same read-out and setting: the same measure for `O=C(c1ccc(C#Cc2ccccc2)cc1)N1CCC(NC2CCC2)CC1` [(4-(cyclobutylamino)piperidin-1-yl)(4-(phenylethynyl)phenyl)methanone]: 212 nM; for `CCCCNC(=O)c1ccc(C#Cc2ccccc2)cc1` [N-butyl-4-(phenylethynyl)benzamide]: 33.5 nM.

`O=C(c1ccc(C#Cc2ccc(F)c(F)c2)cc1)N1CCOCC1` [Compound 20l, (4-((3,4-difluorophenyl)ethynyl)phenyl)(morpholino)methanone]: the Emax at rat mGluR5 (setting [6]) is 114%. The figures for the EC50 on rat mGluR5 (setting [3]) and at rat mGluR5 (setting [5]) were 35.1 nM and 33.5 nM, respectively.

On to `O=C(c1ccc(C#Cc2ccccc2)cc1)N1CCC(N2CCCC2)CC1` [(4-(phenylethynyl)phenyl)(4-(pyrrolidin-1-yl)piperidin-1-yl)methanone], for which, on rat mGluR5 (setting [3]), the EC50 turned out to be 3730 nM. `CC1(O)CCN(C(=O)c2ccc(C#Cc3cccc(F)c3)cc2)CC1` [Compound 20b, (4-((3-fluorophenyl)ethynyl)phenyl)(4-hydroxy-4-methylpiperidin-1-yl)methanone]: the Emax at rat mGluR5 (setting [6]) was determined as 92%. The EC50 was found to be 20.6 nM at rat mGluR5 (setting [3]) and 19.4 nM on rat mGluR5 (setting [5]). In the case of `CC1(O)CN(C(=O)c2ccc(C#Cc3ccccc3)cc2)C1` [Compound 9b, (3-hydroxy-3-methylazetidin-1-yl)(4-(phenylethynyl)phenyl)methanone], the Emax on rat mGluR5 (setting [6]) came to 82%. Also, the EC50 was determined as 119 nM on rat mGluR5 (setting [3]) and 89 nM on rat mGluR5 (setting [5]). For `CCCNC(=O)c1ccc(C#Cc2ccccc2)cc1` [4-(phenylethynyl)-N-propylbenzamide], at rat mGluR5 (setting [3]), the EC50 was 14.7 nM. Same read-out and setting: the same measure for `O=C(NCCC1=CCCCC1)c1ccc(C#Cc2ccccc2)cc1` [N-(2-cyclohexenylethyl)-4-(phenylethynyl)benzamide]: 75.3 nM.
